From US20260217687A1 (NeoPhore Limited, priority 2023, published 2026)

Target: T1, recombinant N-terminal MLH1 (residues 15-340) (Homo sapiens, UniProt P40692)
T1 construct: recombinant N-terminal MLH1 (residues 15-340)
T1 sequence (P40692 15-340): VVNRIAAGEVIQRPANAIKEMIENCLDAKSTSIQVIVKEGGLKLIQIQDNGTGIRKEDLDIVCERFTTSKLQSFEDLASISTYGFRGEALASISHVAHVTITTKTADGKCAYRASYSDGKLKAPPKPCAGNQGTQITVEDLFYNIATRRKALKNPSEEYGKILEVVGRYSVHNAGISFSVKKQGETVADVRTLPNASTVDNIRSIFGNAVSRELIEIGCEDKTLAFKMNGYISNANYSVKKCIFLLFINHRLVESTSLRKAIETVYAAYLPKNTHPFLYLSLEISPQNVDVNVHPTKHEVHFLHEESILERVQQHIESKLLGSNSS
Assay: Fluorescence Polarisation Assay for MLH1
Assay type: binding
Details: 100 nM N-terminal MLH1, 5 nM probe compound
Experimental: Fluorescence Polarisation Assay for MLH1
Test compounds, as 10 mM DMSO stocks, were dispensed into a 384-well Low Flange Black Flat Bottom Polystyrene Non-binding Surface plate (Corning®, item number 3575) using a Labcyte Echo acoustic liquid handler. […] 20 μL of a 2× solution (200 nM) of recombinant N-terminal MLH1 (residues 15-340) in assay buffer (25 mM HEPES, pH 7.5, 250 mM NaCl, 10 mM MgCl2, 0.01% Triton X-100, 5 mM Dithiothreitol) was added to all wells in columns 1-23 and 20 μL assay buffer was added to all wells in column 24 using an E1-ClipTip pipette (ThermoFisher). Plates were centrifuged for 1 minute at 250 xg and were incubated at room temperature for 30 minutes prior to the addition of 20 μL of 2×(10 nM) of 5-((5-(4-((2-(2-(Benzyloxy)-4,6-dihydroxybenzoyl)isoindolin-5-yl)methyl)piperazin-1-yl)pentyl)carbamoyl)-2-(6-(dimethylamino)-3-(dimethyliminio)-3H-xanthen-9-yl)benzoate (referred to hereinafter as “probe compound”) in assay buffer (prepared from a 1 mM DMSO stock) with an E1-ClipTip pipette (ThermoFisher). The final concentration of N-terminal MLH1 was 100 nM and the final concentration of the probe compound was 5 nM. Compound plates were centrifuged for 1 minute at 250 xg for 1 minute and immediately read on a PheraStar FSX (fitted with 384-well aperture spoon and 590 675 675 FP optic module). The gain and focus were adjusted before each plate was read so that the polarisation of a no enzyme control (column 24) was equal to 35 mP. Data were normalised against the no inhibitor controls (column 23) and no enzyme controls (column 24).

Structure (SMILES) | IC50 [nM]
CN(C)Cc1ccc2c(c1)CN(C(=O)c1c(O)cc(C#N)cc1OCc1ccccc1)C2 [Example 10.15, 3-(Benzyloxy)-4-(5-((dimethylamino)methyl)isoindoline-2-carbonyl)-5-hydroxybenzonitrile] | 1000 to 10000
CN1CC[C@@H](Nc2cccc3c2CN(C(=O)c2c(O)cc(C(F)F)cc2OCc2ccccc2)CC3)C1=O [Example 4.15, (R)-3-((2-(2-(Benzyloxy)-4-(difluoromethyl)-6-hydroxybenzoyl)-1,2,3,4-tetrahydroisoquinolin-8-yl)amino)-1-methylpyrrolidin-2-one] | 100 to 1000
CN1CC[C@H](Nc2cccc3c2CN(C(=O)c2c(O)cc(C(F)F)cc2OCc2ccccc2)CC3)C1=O [Example 4.13, (S)-3-((2-(2-(benzyloxy)-4-(difluoromethyl)-6-hydroxybenzoyl)-1,2,3,4-tetrahydroisoquinolin-8-yl)amino)-1-methylpyrrolidin-2-one] | 100 to 1000
CN(C)CCOc1cc2c(c(N[C@H]3CCOC3)c1)CN(C(=O)c1c(O)cc(C(F)F)cc1OCc1ccccc1)C2 [Example 4.76] | < 100
O=C(c1c(O)cc(C(F)F)cc1OCc1ccccc1)N1CCc2ccccc2C1 [Example 4.35, (2-(Benzyloxy)-4-(difluoromethyl)-6-hydroxyphenyl)(3,4-dihydroisoquinolin-2(1H)-yl)methanone] | 1000 to 10000
CN1CC(Oc2ccc3c(c2)CCN(C(=O)c2c(O)cc(C(F)F)cc2OCc2ccccc2)C3)C1 [Example 4.66, (2-(Benzyloxy)-4-(difluoromethyl)-6-hydroxyphenyl)(6-((1-methylazetidin-3-yl)oxy)-3,4-dihydroisoquinolin-2(1H)-yl)methanone] | 100 to 1000
O=C(c1c(O)cc(C(F)F)cc1OCc1ccccc1)N1CCc2ccc(NC3CCOC3)cc21 (stereo not shown) [Example 27.2, (2-(Benzyloxy)-4-(difluoromethyl)-6-hydroxyphenyl)(6-((tetrahydrofuran-3-yl)amino)indolin-1-yl)methanone] | 100 to 1000
CC(=O)N1CCC(Nc2cccc3c2CN(C(=O)c2c(O)cc(C#N)cc2OCc2ccccc2)C3)CC1 [Example 10.16, 4-(4-((1-Acetylpiperidin-4-yl)amino)isoindoline-2-carbonyl)-3-(benzyloxy)-5-hydroxybenzonitrile] | 100 to 1000
CN(C)CCOc1cccc2c1CCN2C(=O)c1c(O)cc(C(F)F)cc1OCc1ccccc1 [Example 27.13, (2-(Benzyloxy)-4-(difluoromethyl)-6-hydroxyphenyl)(4-(2-(dimethylamino)ethoxy)indolin-1-yl)methanone] | 100 to 1000
CN(C)Cc1cc2c(cn1)CN(C(=O)c1c(O)cc(C#N)cc1OCc1ccccc1)C2 [Example 27, 3-(Benzyloxy)-4-(6-((dimethylamino)methyl)-2,3-dihydro-1H-pyrrolo[3,4-c]pyridine-2-carbonyl)-5-hydroxybenzonitrile] | 1000 to 10000
CN1CC(Oc2ccc3c(c2)CN(C(=O)c2c(O)cc(C(F)F)cc2OCc2ccccc2)CC3)C1 [Example 4.69, (2-(Benzyloxy)-4-(difluoromethyl)-6-hydroxyphenyl)(7-((1-methylazetidin-3-yl)oxy)-3,4-dihydroisoquinolin-2(1H)-yl)methanone] | 100 to 1000
O=C(c1c(O)cc(F)cc1OCc1ccccc1)N1Cc2cccc(N[C@H]3CCOC3)c2C1 [Example 5, (S)-(2-(Benzyloxy)-4-fluoro-6-hydroxyphenyl)(4-((tetrahydrofuran-3-yl)amino)isoindolin-2-yl)methanone] | 100 to 1000
O=C(c1c(O)cc(C(F)F)cc1OCc1ccccc1)N1CCc2c(NC3CCOC3)cccc21 (stereo not shown) [Example 27.24, (2-(Benzyloxy)-4-(difluoromethyl)-6-hydroxyphenyl)(4-((tetrahydrofuran-3-yl)amino)indolin-1-yl)methanone] | 1000 to 10000
O=C(c1c(O)cc(F)cc1OCc1ccccc1)N1Cc2cccc(N[C@@H]3CCOC3)c2C1 [Example 6, (R)-(2-(Benzyloxy)-4-fluoro-6-hydroxyphenyl)(4-((tetrahydrofuran-3-yl)amino)isoindolin-2-yl)methanone] | 1000 to 10000
CN(C)Cc1ccc2c(c1)CCN(C(=O)c1c(O)cc(C(F)F)cc1OCc1ccccc1)C2 [Example 4.43, (2-(Benzyloxy)-4-(difluoromethyl)-6-hydroxyphenyl)(6-((dimethylamino)methyl)-3,4-dihydroisoquinolin-2(1H)-yl)methanone] | 100 to 1000
N#Cc1cc(O)c(C(=O)N2Cc3cccc(NCc4cocn4)c3C2)c(OCc2ccccc2)c1 [Example 10.9, 3-(Benzyloxy)-5-hydroxy-4-(4-((oxazol-4-ylmethyl)amino)isoindoline-2-carbonyl)benzonitrile] | 100 to 1000
COc1cccc2c1CN(C(=O)c1c(O)cc(C#N)cc1OCc1ccccc1)C2 [Example 10.11, 3-(Benzyloxy)-5-hydroxy-4-(4-methoxyisoindoline-2-carbonyl)benzonitrile] | 1000 to 10000
COc1ccc2c(c1)CCN(C(=O)c1c(O)cc(C(F)F)cc1OCc1ccccc1)C2 [Example 4.39, (2-(Benzyloxy)-4-(difluoromethyl)-6-hydroxyphenyl)(6-methoxy-3,4-dihydroisoquinolin-2(1H)-yl)methanone] | 1000 to 10000
N#Cc1cc(O)c(C(=O)N2Cc3ccc(OC4CCOCC4)cc3C2)c(OCc2ccccc2)c1 [Example 10.36, 3-(Benzyloxy)-5-hydroxy-4-(5-((tetrahydro-2H-pyran-4-yl)oxy)isoindoline-2-carbonyl)benzonitrile] | 100 to 1000
N#Cc1cc(O)c(C(=O)N2Cc3cccc(N[C@@H]4CCOC4)c3C2)c(OCc2ccccc2)c1 [Example 12.3, (R)-3-(Benzyloxy)-5-hydroxy-4-(4-((tetrahydrofuran-3-yl)amino)isoindoline-2-carbonyl)benzonitrile] | 1000 to 10000
O=C(c1c(O)cc(C(F)F)cc1OCc1ccccn1)N1Cc2cccc(N[C@H]3CCOC3)c2C1 [Example 4.9, (S)-(4-(Difluoromethyl)-2-hydroxy-6-(pyridin-2-ylmethoxy)phenyl) (4-((tetrahydrofuran-3-yl)amino)isoindolin-2-yl) methanone] | 100 to 1000
N#Cc1cc(O)c(C(=O)N2CCc3cccc(N[C@@H]4CCOC4)c3C2)c(OCc2ccccc2)c1 [Example 10.12, (R)-3-(Benzyloxy)-5-hydroxy-4-(8-((tetrahydrofuran-3-yl)amino)-1,2,3,4-tetrahydroisoquinoline-2-carbonyl)benzonitrile] | 1000 to 10000
CC(=O)N1CCC[C@@H](Nc2cccc3c2CN(C(=O)c2c(O)cc(C#N)cc2OCc2ccccc2)C3)C1 [Example 10.17, (R)-4-(4-((1-Acetylpiperidin-3-yl)amino)isoindoline-2-carbonyl)-3-(benzyloxy)-5-hydroxybenzonitrile] | 1000 to 10000
O=C(c1c(O)cc(C(F)F)cc1OCc1ccccc1)N1CCc2cc(NC3CCOC3)ccc21 (stereo not shown) [Example 27.5, (2-(Benzyloxy)-4-(difluoromethyl)-6-hydroxyphenyl)(5-((tetrahydrofuran-3-yl)amino)indolin-1-yl)methanone] | 1000 to 10000
Cn1cncc1-c1cc2c(c(N[C@H]3CCOC3)c1)CN(C(=O)c1c(O)cc(C(F)F)cc1OCc1ccccc1)C2 [Example 4.24, (S)-(2-(Benzyloxy)-4-(difluoromethyl)-6-hydroxyphenyl)(6-(1-methyl-1H-imidazol-5-yl)-4-((tetrahydrofuran-3-yl)amino)isoindolin-2-yl)methanone] | 100 to 1000
CN1CCN(Cc2ccc3c(c2)CCN(C(=O)c2c(O)cc(C(F)F)cc2OCc2ccccc2)C3)CC1 [Example 4.47, (2-(Benzyloxy)-4-(difluoromethyl)-6-hydroxyphenyl)(6-((4-methylpiperazin-1-yl)methyl)-3,4-dihydroisoquinolin-2(1H)-yl)methanone] | 100 to 1000
CN(C)C(=O)CNc1cccc2c1CN(C(=O)c1c(O)cc(C(F)F)cc1OCc1ccccc1)C2 [Example 4.29, 2-((2-(2-(Benzyloxy)-4-(difluoromethyl)-6-hydroxybenzoyl)isoindolin-4-yl)amino)-N, N-dimethylacetamide] | 100 to 1000
O=C(c1c(O)cc(C(F)F)cc1OCc1ccccc1)N1CCc2cccc(N[C@H]3CCOC3)c2C1 [Example 4.6, (S)-(2-(Benzyloxy)-4-(difluoromethyl)-6-hydroxyphenyl)(8-((tetrahydrofuran-3-yl)amino)-3,4-dihydroisoquinolin-2(1H)-yl)methanone] | 100 to 1000
